In US9790169B2, “IDO inhibitors” (BRISTOL-MYERS SQUIBB COMPANY, priority 2015, dated 2017):

The compounds below were run against human IDO1 (Homo sapiens, UniProt P14902) (assay: Assessment of human IDO-1 inhibitory activity in Hela cells (Interferon-gamma stimulated HeLa cells, Ehrlich reagent, absorbance 490 nm)). Details: Hela Human IDO-1 cellular assay.
human IDO1, sequence (P14902 whole entry): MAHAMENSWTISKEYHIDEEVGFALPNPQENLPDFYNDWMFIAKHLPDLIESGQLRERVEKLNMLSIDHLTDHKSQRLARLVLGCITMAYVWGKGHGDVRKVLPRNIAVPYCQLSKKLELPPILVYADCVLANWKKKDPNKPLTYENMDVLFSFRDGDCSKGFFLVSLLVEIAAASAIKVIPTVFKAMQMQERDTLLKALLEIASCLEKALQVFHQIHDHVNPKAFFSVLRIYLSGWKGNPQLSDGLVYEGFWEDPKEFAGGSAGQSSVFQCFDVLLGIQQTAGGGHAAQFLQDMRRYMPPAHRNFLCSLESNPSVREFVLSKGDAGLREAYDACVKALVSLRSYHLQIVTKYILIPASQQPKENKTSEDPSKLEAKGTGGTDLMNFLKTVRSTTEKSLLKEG
Assay type: cell-based
Design: endogenous in cells; host or cells: HeLa cells stimulated with interferon-gamma
Protocol: Exemplary compounds were tested for inhibition of IDO activity.
Assessment of Human IDO-1 Inhibitory Activity in Hela Cells
HeLa cells were seeded at 20,000 cells per 30 μL per well with RPMI/phenol red free media containing 10% FBS in a 384-well tissue culture plate (black with clear bottoms). 50 nL of compound was added to cells and incubated at 37° C. for one hour. 20 μL of the recombinant human Interferon-gamma (R&D System, Cat. #285-IF, at final concentration of 10 ng/ml) or recombinant murine Interferon-gamma (PEPROTECH® Inc., Cat. #315-05, final concentration of 5 ng/ml) was added to activate IDO signaling. The cells were incubated for 18 hours in 37° C. incubator with 5% CO2.
Compound treatment was stopped by adding 5 μl trichloroacetic acid to a final concentration of 3%. Subsequently, the cell plate was further incubated at 50° C. for 30 minute. An equal volume supernatant (20 μL) and 2% (w/v) Ehrlich reagent (4-dimethylaminobenzaldehyde) in glacial acetic acid were mixed in a new clear bottom 384-well plate. This plate was incubated at room temperature for 30 minutes. Absorbance at 490 nm was measured on Envision plate reader.
Compound IC50 values were calculated using counts from unstimulated (no INF-gamma treatment) wells as 100% inhibition. INF-gamma treatment without compound treatment as 0% inhibition.
Work on `COCCN(c1ccc(C(COC)CC(=O)O)cc1Nc1ccc(Cl)cc1)C1CCOCC1` (single isomer, unassigned) [Example 256 Enantiomer 1, 3-(3-((4-Chlorophenyl)amino)-4-((2-methoxyethyl)(tetrahydro-2H-pyran-4-yl)amino)phenyl)-4-methoxybutanoic acid] yielded an IC50 of less than 5 nM. With `CCN(c1ccc([C@@H](COC)CC(=O)O)cc1Nc1ccc(Cl)cc1F)C1CCOCC1` (single isomer, unassigned) [Example 362] the IC50 was less than 5 nM. With `CCOc1ncc(Nc2cc([C@H](CC)Cc3nnn[nH]3)ccc2N(CC)C2CCOCC2)cn1` [Example 1339, (R)-4-(1-(1H-Tetrazol-5-yl)butan-2-yl)-N2-(2-ethoxypyrimidin-5-yl)-N1-ethyl-N1-(tetrahydro-2H-pyran-4-yl)benzene-1,2-diamine] the IC50 was less than 5 nM. `CCOc1ncc(Nc2cc(C(C)(C)CC(=O)O)ccc2N(CCOC)C2CCOCC2)cn1` [Example 17, 3-(3-((2-ethoxypyrimidin-5-yl)amino)-4-((2-methoxyethyl)(tetrahydro-2H-pyran-4-yl)amino)phenyl)-3-methylbutanoic acid] was tested, and the IC50 was greater than 50 nM. For `CCC1COCCN1c1ccc([C@H](COC)CC(=O)O)cc1Nc1ccc(F)cc1` (single isomer, unassigned) [Example 1309], the IC50 was less than 50 nM. `COCC(CC(=O)O)c1ccc(N(C)C2CCOCC2)c(Nc2ccc(C#N)c(F)c2)c1` (single isomer, unassigned) [Example 875, 3-(3-((4-cyano-3-fluorophenyl)amino)-4-(methyl(tetrahydro-2H-pyran-4-yl)amino)phenyl)-4-methoxybutanoic acid] gave an IC50 of less than 50 nM. Compound `CC(CC(=O)O)c1ccc(N2C[C@@H](C)O[C@@H](C)C2)c(NC(=O)Nc2ccc(Cl)cc2F)c1` (single isomer, unassigned) [Example 749 Enantiomer 1] has an IC50 greater than 50 nM. `CCCN(c1ccc([C@H](CC)CC(=O)O)cc1Nc1cnc(OCC2CC2)nc1)C1CCOCC1` (single isomer, unassigned) [Example 554] was tested, and the IC50 was less than 5 nM. `COCC(CC(=O)O)c1ccc(N2CCC(c3ccccc3)CC2)c(Nc2ccc(C#N)cc2)c1` (single isomer, unassigned) [Example 1350 E1, 3-(3-((4-Cyanophenyl)amino)-4-(4-phenylpiperidin-1-yl)phenyl)-4-methoxybutanoic acid] showed an IC50 of less than 5 nM. Work on `CCN(c1c(F)cc(C(COC)CC(=O)O)cc1Nc1ccc(C#N)cc1)C1CCOCC1` (single isomer, unassigned) [Example 916, 3-(3-((4-Cyanophenyl)amino)-4-(ethyl(tetrahydro-2H-pyran-4-yl)amino)-5-fluorophenyl)-4-methoxybutanoic acid] yielded an IC50 of less than 5 nM. `CCOc1ncc(Nc2cc(C(CC)CC(=O)O)ccc2N(CC)C2CCN(Cc3ccccc3)CC2)cn1` (single isomer, unassigned) [Example 939, 3-(4-((1-Benzylpiperidin-4-yl)(ethyl)amino)-3-((2-ethoxypyrimidin-5-yl)amino)phenyl)pentanoic acid] showed an IC50 of less than 50 nM. `CCOc1ncc(Nc2cc(C(CC)CC(=O)O)ccc2N2CCN(C(=O)OC(C)(C)C)CC2)cn1` (single isomer, unassigned) [Example 675, 3-(4-(4-(tert-Butoxycarbonyl)piperazin-1-yl)-3-((2-ethoxypyrimidin-5-yl)amino)phenyl)pentanoic acid] gave an IC50 greater than 50 nM. `CCN(c1ccc(C(C)CC(=O)O)cc1Nc1ccc2nc(C)sc2c1)C1CCOCC1` (single isomer, unassigned) [Example 629, 3-(4-(ethyl(tetrahydro-2H-pyran-4-yl)amino)-3-((2-methylbenzo[d]thiazol-6-yl)amino)phenyl)butanoic acid] showed an IC50 of less than 50 nM. Work on `CCN(c1ccc(C(C)CC(=O)O)cc1Nc1ccc(F)cc1)C1CCOCC1` (single isomer, unassigned) [Example 627, 3-(4-(ethyl(tetrahydro-2H-pyran-4-yl)amino)-3-((4-fluorophenyl)amino)phenyl) butanoic acid] yielded an IC50 of less than 5 nM. `CCC(CC(=O)O)c1ccc(N(CC)C2CCS(=O)(=O)CC2)c(Nc2ccc(C#N)cc2)c1` (single isomer, unassigned) [Example 335, 3-(3-((4-cyanophenyl)amino)-4-((1,1-dioxidotetrahydro-2H-thiopyran-4-yl)(ethyl)amino)phenyl) pentanoic acid] was tested, and the IC50 was less than 50 nM. With `COCC(CC(=O)O)c1ccc(N2C[C@@H](C)O[C@@H](C)C2)c(Nc2ccc(Cl)cc2)c1` (single isomer, unassigned) [Example 603] the IC50 was greater than 50 nM. `CCC(CC(=O)O)c1ccc(N2CCOC[C@H]2C(C)C)c(Nc2ccc(F)cc2)c1` (single isomer, unassigned) [Example 889] showed an IC50 of less than 5 nM. `CCOc1ncc(Nc2cc(C(CC)CC(=O)O)ccc2N2CCC(c3ccccc3)CC2)cn1` (single isomer, unassigned) [Example 47 Enantiomer 2, 3-(3-((2-Ethoxypyrimidin-5-yl)amino)-4-(4-phenylpiperidin-1-yl)phenyl)pentanoic acid] was tested, and the IC50 was less than 50 nM. For `CCN(c1ccc([C@@H](COC)CC(=O)O)cc1Nc1ccc(Cl)cn1)C1CCOCC1` (single isomer, unassigned) [Example 356], the IC50 was less than 5 nM. Work on `CCOc1ncc(Nc2cc([C@H](COC)CC(=O)O)ccc2N2CCOCC2CC)cn1` (single isomer, unassigned) [Example 1291] yielded an IC50 greater than 50 nM. `CCOc1ncc(Nc2cc([C@@H](COC)CC(=O)O)ccc2N2CCOCC2CC)cn1` (single isomer, unassigned) [Example 1285] was tested, and the IC50 was greater than 50 nM. `CCN(c1ccc([C@@H](COC)CC(=O)O)cc1Nc1ccc(C#N)c(C(F)(F)F)c1)C1CCOCC1` (single isomer, unassigned) [Example 383] was tested, and the IC50 was greater than 50 nM. `CCC1COCCN1c1ccc([C@H](COC)CC(=O)O)cc1Nc1cnc(OC)nc1` (single isomer, unassigned) [Example 1290] was tested, and the IC50 was greater than 50 nM. Work on `CCCN(c1ccc([C@@H](COC)CC(=O)O)cc1NC(=O)Nc1ccc(Cl)cc1F)C1CCOCC1` (single isomer, unassigned) [Example 566] yielded an IC50 of less than 50 nM. `CCN(c1ccc(C2(CC(=O)O)CCOCC2)cc1NC(=O)Nc1ccc(C)cc1)C1CCOCC1` [Example 157, 2-(4-(4-(Ethyl(tetrahydro-2H-pyran-4-yl)amino)-3-(3-(p-tolyl)ureido)phenyl)tetrahydro-2H-pyran-4-yl)acetic acid] gave an IC50 greater than 50 nM. `CC[C@@H](CC(=O)O)c1ccc(N(CC)C2CCOCC2)c(Nc2cnc(OC)cn2)c1` (single isomer, unassigned) [Example 464] was tested, and the IC50 was less than 5 nM. Work on `CCC1COCCN1c1ccc([C@@H](COC)CC(=O)O)cc1Nc1ccc(C#N)c(F)c1` (single isomer, unassigned) [Example 1282] yielded an IC50 greater than 50 nM. For `CCC(CC(=O)O)c1ccc(N(C)C2CCOCC2)c(Nc2ccc(C#N)cc2)c1` (single isomer, unassigned) [Example 866, 3-(3-((4-Cyanophenyl)amino)-4-(methyl(tetrahydro-2H-pyran-4-yl)amino)phenyl)pentanoic acid], the IC50 was less than 50 nM. `COCC(CC(=O)O)c1ccc(N2C[C@@H](C)O[C@@H](C)C2)c(Nc2ccc(C#N)cc2)c1` (single isomer, unassigned) [602 E1] was tested, and the IC50 was greater than 50 nM. `CCN(c1ccc(C(C)(C)CC(=O)O)cc1Nc1ccc(C#N)cc1)C1CCS(=O)(=O)CC1` [Example 178, 3-(3-((4-cyanophenyl)amino)-4-((1,1-dioxidotetrahydro-2H-thiopyran-4-yl)(ethyl)amino)phenyl)-3-melhylbutanoic acid] was tested, and the IC50 was less than 50 nM. `CC(CC(=O)O)c1ccc(N2C[C@@H](C)O[C@@H](C)C2)c(NC(=O)Nc2ccc(C#N)cc2)c1` (single isomer, unassigned) [Example 750] gave an IC50 greater than 50 nM. For `CCN(c1ccc(C2(CC(=O)O)CCOCC2)cc1Nc1ccc(OC)nc1)C1CCOCC1` [Example 156, 2-(4-(4-(ethyl(tetrahydro-2H-pyran-4-yl)amino)-3-((6-methoxypyridin-3-yl)amino)phenyl)tetrahydro-2H-pyran-4-yl)acetic acid], the IC50 was greater than 50 nM. Work on `CCCN(c1ccc(C(C)(C)CC(=O)O)cc1Nc1ccc(C#N)cc1)C1CCS(=O)(=O)CC1` [Example 187, 3-(3-((4-Cyanophenyl)amino)-4-((1,1-dioxidotetrahydro-2H-thiopyran-4-yl)(propyl)amino)phenyl)-3-methylbutanoic acid] yielded an IC50 of less than 50 nM. “(R)-3-(4-((1,1-dioxidotetrahydro-2H-thiopyran-4-yl)(ethyl)amino)- 3-((2-methoxypyrimidin-5- yl)amino)phenyl)-4- isopropoxybutanoic acid [Example 332]” showed an IC50 greater than 50 nM. Compound `CCN(c1ccc(C(CC(=O)O)C2CC2)cc1Nc1cnc(OC)nc1)C1CCOCC1` (single isomer, unassigned) [Example 35, 3-cyclopropyl-3-(4-(ethyl(tetrahydro-2H-pyran-4-yl)amino)-3-((2-methoxypyrimidin-5-yl)amino)phenyl)propanoic acid] has an IC50 of less than 50 nM. Compound `CCN(c1ccc(C(CC)(CC)CC(=O)O)cc1NC(=O)Nc1ccc(C#N)cc1)C1CCOCC1` [Example 31, 3-(3-(3-(4-cyanophenyl)ureido)-4-(ethyl(tetrahydro-2H-pyran-4-yl)amino)phenyl)-3-ethylpentanoic acid] has an IC50 of less than 50 nM. `COc1ccc(Nc2cc(C(CC(=O)O)C3CC3)ccc2N2C[C@@H](C)O[C@@H](C)C2)cn1` (single isomer, unassigned) [Example 246] was tested, and the IC50 was greater than 50 nM.
